Measurements as given in BigSolDB 2.1.

CCOC(=O)C1(c2ccccc2)CCN(CCC(C#N)(c2ccccc2)c2ccccc2)CC1
solubility (mole fraction)
Details	278.15 K	283.15 K	288.15 K	293.15 K	298.15 K	303.15 K	308.15 K	313.15 K	318.15 K
in acetonitrile	0.00208	0.00256	0.0033	0.00386	0.00492	0.0059	0.00738	0.00941	0.0126
in ethanol	0.000882	0.00109	0.00127	0.00154	0.00193	0.00227	0.00277	0.0034	0.00432
in isopropanol	0.000106	0.000155	0.000208	0.000274	0.000421	0.000601	0.000838	0.00114	0.00156
in methanol	0.00341	0.00419	0.00501	0.0063	0.00759	0.00952	0.0118	0.0147	0.0186
in water	4.09e-06	5.3e-06	6.84e-06	9.18e-06	1.14e-05	1.48e-05	1.91e-05	2.54e-05	3.28e-05
